According to the NIST ThermoML archive (doi:10.1016/j.jct.2008.02.020):

Details: Liquid, Buoyancy - hydrostatic balance with magnetic suspension - one sinker

Brc1ccccc1 [bromobenzene]
Details | mass density [kg/m3]
248.15 K, 99.7 kPa | 1554.49
248.15 K, 1231.4 kPa | 1555.37
248.15 K, 2075.4 kPa | 1556.04
248.15 K, 4196.2 kPa | 1557.7
248.15 K, 5951 kPa | 1559.05
248.15 K, 8068.3 kPa | 1560.67
248.15 K, 10015 kPa | 1562.11
248.15 K, 11952 kPa | 1563.58
248.15 K, 13995 kPa | 1565.09
248.15 K, 15940 kPa | 1566.53
248.15 K, 18145 kPa | 1568.12
248.15 K, 19946 kPa | 1569.42
248.15 K, 21965 kPa | 1570.86
248.15 K, 24136 kPa | 1572.41
248.15 K, 25865 kPa | 1573.62
248.15 K, 27917 kPa | 1575.05
248.15 K, 29850 kPa | 1576.39
273.15 K, 100.51 kPa | 1520.56
273.15 K, 1116.3 kPa | 1521.45
273.15 K, 2128.1 kPa | 1522.34
273.15 K, 4045.8 kPa | 1524.03
273.15 K, 5967.3 kPa | 1525.66
273.15 K, 8142.8 kPa | 1527.52
273.15 K, 10020 kPa | 1529.11
273.15 K, 11896 kPa | 1530.68
273.15 K, 13922 kPa | 1532.35
273.15 K, 16083 kPa | 1534.13
273.15 K, 18195 kPa | 1535.83
273.15 K, 20035 kPa | 1537.31
273.15 K, 21829 kPa | 1538.75
273.15 K, 23856 kPa | 1540.34
273.15 K, 25976 kPa | 1542.02
273.15 K, 28098 kPa | 1543.65
273.15 K, 29947 kPa | 1545.09
293.15 K, 101.93 kPa | 1493.56
293.15 K, 1239.7 kPa | 1494.68
293.15 K, 2010.7 kPa | 1495.41
293.15 K, 4059.7 kPa | 1497.37
293.15 K, 6007.9 kPa | 1499.22
293.15 K, 8079.8 kPa | 1501.16
293.15 K, 10001 kPa | 1502.94
293.15 K, 11960 kPa | 1504.73
293.15 K, 14169 kPa | 1506.73
293.15 K, 15879 kPa | 1508.27
293.15 K, 17960 kPa | 1510.11
293.15 K, 19999 kPa | 1511.9
293.15 K, 21880 kPa | 1513.53
293.15 K, 24122 kPa | 1515.46
293.15 K, 26141 kPa | 1517.17
293.15 K, 28060 kPa | 1518.79
293.15 K, 29993 kPa | 1520.42
313.15 K, 102.54 kPa | 1466.55
313.15 K, 2000.8 kPa | 1468.59
313.15 K, 4011 kPa | 1470.71
313.15 K, 6189.6 kPa | 1473
313.15 K, 7991.6 kPa | 1474.86
313.15 K, 10089 kPa | 1477.01
313.15 K, 12143 kPa | 1479.06
313.15 K, 14015 kPa | 1480.93
313.15 K, 16087 kPa | 1482.94
313.15 K, 18047 kPa | 1484.85
313.15 K, 20004 kPa | 1486.73
313.15 K, 22154 kPa | 1488.76
313.15 K, 23944 kPa | 1490.45
313.15 K, 26100 kPa | 1492.42
313.15 K, 28042 kPa | 1494.21
313.15 K, 29906 kPa | 1495.9
333.15 K, 100.42 kPa | 1439.38
333.15 K, 1115 kPa | 1440.6
333.15 K, 1943.4 kPa | 1441.57
333.15 K, 4094.5 kPa | 1444.1
333.15 K, 6114.2 kPa | 1446.44
333.15 K, 7927.8 kPa | 1448.51
333.15 K, 10022 kPa | 1450.84
333.15 K, 11958 kPa | 1453
333.15 K, 13999 kPa | 1455.24
333.15 K, 16049 kPa | 1457.44
333.15 K, 18156 kPa | 1459.68
333.15 K, 20008 kPa | 1461.63
333.15 K, 22158 kPa | 1463.84
333.15 K, 24130 kPa | 1465.86
333.15 K, 26094 kPa | 1467.85
333.15 K, 28018 kPa | 1469.76
333.15 K, 29890 kPa | 1471.61
353.15 K, 99.8 kPa | 1411.94
353.15 K, 1173.8 kPa | 1413.37
353.15 K, 1944.3 kPa | 1414.39
353.15 K, 3949.8 kPa | 1417.01
353.15 K, 5968.9 kPa | 1419.61
353.15 K, 7990.5 kPa | 1422.16
353.15 K, 9916 kPa | 1424.56
353.15 K, 11987 kPa | 1427.09
353.15 K, 14135 kPa | 1429.67
353.15 K, 15921 kPa | 1431.8
353.15 K, 18146 kPa | 1434.39
353.15 K, 19874 kPa | 1436.37
353.15 K, 22180 kPa | 1438.99
353.15 K, 23964 kPa | 1440.98
353.15 K, 26085 kPa | 1443.32
353.15 K, 28122 kPa | 1445.53
